Measured values from patent publication US10376510B2, “2,4- or 4,6-diaminopyrimidine compounds as IDH2 mutants inhibitors for the treatment of cancer” (AGIOS PHARMACEUTICALS, INC., priority 2013, dated 2019).
pIC50: −log10 of the molar value.

Columns and labels:
[1] = system: U87MG pLVX-IDH2 R140Q-neo cells; test: U87MG pLVX-IDH2 R140Q-neo cell based assay (2-HG in media by LC-MS); design: key to Cell R140Q: values indicated as “A” represent an IC50 of less than 50 nM; values indicated as “B” represent an IC50 of between 50 nM and 100 nM; values indicated as “C” represent an IC50 of greater than 100 nM; values indicated as “D” represent that the compound was either inactive or not tested in that particular assay; conditions: 2-HG at 48 hours, class symbols; for pIC50: Homo sapiens, U-87 MG
Procedure: U87MG pLVX-IDH2 R140Q-neo Cell Based Assay.
U87MG pLVX-IDH2 R140Q-neo cells are grown in T125 flasks in DMEM containing 10% FBS, 1× penicillin/streptomycin and 500 μg/mL G418. They are harvested by trypsin and seeded into 96 well white bottom plates at a density of 5000 cell/well in 100 μl/well in DMEM with 10% FBS. No cells are plated in columns 1 and 12. Cells are incubated overnight at 37° C. in 5% CO2. The next day compounds are made up at 2x concentration and 100 ul are added to each cell well. The final concentration of DMSO is 0.2% and the DMSO control wells are plated in row G. The plates are then placed in the incubator for 48 hours. At 48 hours, 100 ul of media is removed from each well and analyzed by LC-MS for 2-HG concentrations. The cell plate is placed back in the incubator for another 24 hours. At 72 hours post compound addition, 10 mL/plate of Promega Cell Titer Glo reagent is thawed and mixed. The cell plate is removed from the incubator and allowed to equilibrate to room temperature. Then 100 ul of reagent is added to each well of media. The cell plate is then placed on an orbital shaker for 10 minutes and then allowed to sit at room temperature for 20 minutes. The plate is then read for luminescence with an integration time of 500 ms to determine compound effects on growth inhibition.

IDH2 R140Q = biological target: T1, IDH2 R140Q (Homo sapiens, UniProt P48735, R140Q); test: IDH2 R140Q enzymatic assay (NADPH cofactor depletion, diaphorase/resazurin readout); format: biochemical; design: key to Enz R140Q: values indicated as “A” represent an IC50 of less than 50 nM; values indicated as “B” represent an IC50 of between 50 nM and 100 nM; values indicated as “C” represent an IC50 of greater than 100 nM; values indicated as “D” represent that the compound was either inactive or not tested in that particular assay; conditions: IDH2 R140Q enzyme, 16 hours preincubation, class symbols; for pIC50: read-out: Enz R140Q
T1 sequence (P48735 40-452 R140Q): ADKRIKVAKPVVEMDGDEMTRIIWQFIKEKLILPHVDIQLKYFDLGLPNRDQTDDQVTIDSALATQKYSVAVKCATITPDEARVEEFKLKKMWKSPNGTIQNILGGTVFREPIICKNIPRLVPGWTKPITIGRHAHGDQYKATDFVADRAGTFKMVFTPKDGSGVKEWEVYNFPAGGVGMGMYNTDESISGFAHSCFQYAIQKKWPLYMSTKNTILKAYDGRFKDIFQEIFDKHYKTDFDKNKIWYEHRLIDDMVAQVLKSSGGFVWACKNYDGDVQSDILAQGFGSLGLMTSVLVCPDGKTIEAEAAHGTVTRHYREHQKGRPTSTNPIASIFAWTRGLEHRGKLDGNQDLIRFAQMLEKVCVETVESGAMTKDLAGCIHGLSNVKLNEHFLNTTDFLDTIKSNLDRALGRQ
Procedure: Compounds are assayed for IDH2 R172K inhibitory activity through a cofactor depletion assay. […] The reaction is terminated by the addition of a second enzyme, diaphorase, and a corresponding substrate, resazurin. Diaphorase reduces resazurin to the highly fluorescent resorufin with the concomitant oxidation of NADPH to NADP, both halting the IDH2 reaction by depleting the available cofactor pool and facilitating quantitation of the amount of cofactor remaining after a specific time period through quantitative production of an easily detected fluorophore.
Specifically, into each of 12 wells of a 384-well plate, 1 μl of 100× compound dilution series is placed, followed by the addition of 40 μl of buffer (50 mM potassium phosphate (K2HPO4), pH 7.5; 150 mM NaCl; 10 mM MgCl2, 10% glycerol, 0.05% bovine serum albumin, 2 mM beta-mercaptoethanol) containing 1.25 μg/ml IDH2 R172K. The test compound is then incubated for 16 hours at room temperature with the enzyme; before starting the IDH2 reaction with the addition of 10 μl of substrate mix containing 50 μM NADPH and 6.3 mM α-KG in the buffer described above. After a further one hour of incubation at room temperature, the reaction is halted and the remaining NADPH measured through conversion of resazurin to resorufin by the addition of 25 μl Stop Mix (36 μg/ml diaphorase enzyme and 60 μM resazurin; in buffer). After one minute of incubation the plate is read on a plate reader at Ex544/Em590.
For determination of the inhibitory potency of compounds against IDH2 R140Q in an assay format similar to the above, a similar procedure is performed, except that the final testing concentration is 0.25 μg/ml IDH2 R140Q protein, 4 μM NADPH and 1.6 mM α-KG.
For determination of the inhibitory potency of compounds against IDH2 R140Q in a high throughput screening format, a similar procedure is performed, except that 0.25 μg/ml IDH2 R140Q protein was utilized in the preincubation step, and the reaction is started with the addition of 4 μM NADPH and 8 μM α-KG.

| SMILES | pIC50 [1] | pIC50 (IDH2 R140Q) | Cell R140Q [1] | Enz R140Q (IDH2 R140Q) |
| --- | --- | --- | --- | --- |
| CC(C)Nc1cc(Nc2ccccc2)nc(-c2ccccc2)n1 [Compound 700] | < 7.00 | 7.00 to 7.30 | – | – |
| Nc1cc(Nc2cc(C(F)(F)F)ccn2)nc(-c2cccc(C(F)(F)F)n2)n1 [Compound 722] | – | < 7.00 | D | – |
| CC(C)Nc1cc(Nc2cc(C(C)(F)F)ccn2)nc(-c2cccc(C(F)(F)F)n2)n1 [Compound 713] | > 7.30 | > 7.30 | – | – |
| CC(C)(C)Nc1cc(Nc2cc(C3(C#N)CC3)ccn2)nc(-c2cccc(C(F)(F)F)n2)n1 [Compound 721] | > 7.30 | 7.00 to 7.30 | – | – |
| CC(C)Nc1cc(Nc2ccccn2)nc(-c2cccc(C(F)(F)F)n2)n1 [Compound 704] | > 7.30 | > 7.30 | – | – |
| CC(C)Nc1cc(Nc2cc(Cl)ccn2)nc(-c2cccc(C(F)(F)F)n2)n1 [Compound 705] | > 7.30 | > 7.30 | – | – |
| Nc1cc(Nc2cc(C(F)(F)F)ncn2)nc(-c2cccc(C(F)(F)F)n2)n1 [Compound 726] | – | < 7.00 | D | – |
| CC(C)Nc1cc(Nc2cc(C#N)ccn2)nc(-c2cccc(C(F)(F)F)n2)n1 [Compound 712] | > 7.30 | > 7.30 | – | – |
| CC(C)CC(=O)Nc1cc(Nc2ccccc2)nc(-c2ccccc2)n1 [Compound 701] | < 7.00 | – | – | D |
| N#CC1(c2ccnc(Nc3cc(NCC4CC4)nc(-c4cccc(C(F)(F)F)n4)n3)c2)CC1 [Compound 719] | > 7.30 | > 7.30 | – | – |
| CC(C)Nc1cc(Nc2cc(C(F)(F)F)ncn2)nc(-c2cccc(C(F)(F)F)n2)n1 [Compound 717] | > 7.30 | > 7.30 | – | – |
| CC(C)(O)CNc1cc(Nc2cc(C(F)(F)F)ccn2)nc(-c2cccc(C(F)(F)F)n2)n1 [Compound 718] | > 7.30 | > 7.30 | – | – |
| CC(C)Nc1cc(-c2ccccc2)nc(Nc2ccccc2)n1 [Compound 730] | 7.00 to 7.30 | 7.00 to 7.30 | – | – |
| CC(C)(C)Nc1cc(Nc2cc(C(F)(F)F)ncn2)nc(-c2cccc(C(F)(F)F)n2)n1 [Compound 723] | – | 7.00 to 7.30 | D | – |
| Nc1cc(Nc2ccnc(C(F)(F)F)c2)nc(-c2cccc(C(F)(F)F)n2)n1 [Compound 728] | – | – | D | D |
| CC(C)Nc1cc(-c2cccc(C(F)(F)F)n2)nc(Nc2ccnc(C(F)(F)F)c2)n1 [Compound 739] | < 7.00 | > 7.30 | – | – |
| CC(C)(O)CNc1cc(Nc2ccccn2)nc(-c2cccc(C(F)(F)F)n2)n1 [Compound 707] | < 7.00 | < 7.00 | – | – |
| CC(C)CC(=O)Nc1cc(-c2ccccc2)nc(Nc2ccccc2)n1 [Compound 735] | < 7.00 | < 7.00 | – | – |
| COc1ccc(CNc2cc(Nc3cc(C(F)(F)F)ncn3)nc(-c3cccc(C(F)(F)F)n3)n2)cc1 [Compound 724] | – | > 7.30 | D | – |

| SMILES | pIC50 [1] | pIC50 (IDH2 R140Q) | Cell R140Q [1] | Enz R140Q (IDH2 R140Q) |
| --- | --- | --- | --- | --- |
| FC(F)(F)c1ccnc(Nc2cc(NCC3CC3)nc(-c3cccc(C(F)(F)F)n3)n2)c1 [Compound 715] | > 7.30 | > 7.30 | – | – |
| CC(C)Nc1cc(Nc2cc(C3(C#N)CC3)ccn2)nc(-c2cccc(C(F)(F)F)n2)n1 [Compound 720] | > 7.30 | > 7.30 | – | – |
| CC(C)OC(=O)Nc1cc(-c2ccccc2)nc(Nc2ccccc2)n1 [Compound 737] | – | – | D | D |
| CC(C)Nc1cc(Nc2ccccc2)nc(-c2cccc(C(F)(F)F)n2)n1 [Compound 708] | 7.00 to 7.30 | > 7.30 | – | – |
| COc1ccc(CNc2cc(Nc3ccnc(C(F)(F)F)c3)nc(-c3cccc(C(F)(F)F)n3)n2)cc1 [Compound 727] | – | 7.00 to 7.30 | D | – |
| O=C(Cc1ccccc1)Nc1nc(Nc2ccccc2)cc(-c2ccccc2)n1 [Compound 734] | < 7.00 | – | – | D |
| CC(C)Nc1cc(Nc2cccc(Cl)n2)nc(-c2cccc(C(F)(F)F)n2)n1 [Compound 710] | > 7.30 | > 7.30 | – | – |
| CC(C)(O)CNc1cc(Nc2ccnc(C(F)(F)F)c2)nc(-c2cccc(C(F)(F)F)n2)n1 [Compound 709] | < 7.00 | < 7.00 | – | – |
| CC(C)Nc1cc(Nc2cc(C(F)(F)F)ccn2)nc(-c2cccc(C(F)(F)F)n2)n1 [Compound 711] | > 7.30 | > 7.30 | – | – |
| CC(C)C(=O)Nc1cc(-c2ccccc2)nc(Nc2ccccc2)n1 [Compound 736] | < 7.00 | – | – | D |
| CC(C)Nc1cc(Nc2cc(C(F)F)ccn2)nc(-c2cccc(C(F)(F)F)n2)n1 [Compound 714] | > 7.30 | > 7.30 | – | – |
| CC(C)(C)Nc1cc(Nc2cc(C(F)(F)F)ccn2)nc(-c2cccc(C(F)(F)F)n2)n1 [Compound 716] | > 7.30 | 7.00 to 7.30 | – | – |
| CC(C)OC(=O)Nc1cc(Nc2ccccc2)nc(-c2ccccc2)n1 [Compound 703] | < 7.00 | – | – | D |
| CC(C)C(=O)Nc1cc(Nc2ccccc2)nc(-c2ccccc2)n1 [Compound 702] | < 7.00 | > 7.30 | – | – |
| CC(C)(CO)Nc1cc(Nc2cc(C(F)(F)F)ncn2)nc(-c2cccc(C(F)(F)F)n2)n1 [Compound 725] | – | 7.00 to 7.30 | D | – |
| CC(C)Nc1cc(Nc2ccnc(C(F)(F)F)c2)nc(-c2cccc(C(F)(F)F)n2)n1 [Compound 706] | > 7.30 | > 7.30 | – | – |
| CC(C)Nc1nc(Nc2ccnc(C(F)(F)F)c2)cc(-c2cccc(C(F)(F)F)n2)n1 [Compound 738] | 7.00 to 7.30 | > 7.30 | – | – |
| CC(C)Nc1nc(Nc2ccccc2)cc(-c2ccccc2)n1 [Compound 729] | – | – | D | D |
